Test results as given in patent US20070026080A1, “Manufacturing process for tigecycline” (Wyeth, priority 2005, published 2007).

Test: Strength and degradation profile of tigecycline 20 mg/mL bulk solutions by reversed phase HPLC (effect of temperature, time, pH, dissolved oxygen; Runs A to O)
Format: physicochemical
Conditions: 20 mg/mL
Procedure: The contents of the sample vials are dissolved in diluent. The sample solution is diluted, if necessary, and chromatographed on a reversed phase column using gradient elution. Impurities are determined by comparing the impurity peak areas in the sample preparation chromatogram to the average area of tigecycline peaks in the standard preparation chromatograms obtained concomitantly.
Chromatographic Column—Length about 15 cm, inside diameter about 4.6 mm, packed with Inertsil ODS2, 5 μm size particles or equivalent.
Detector—Ultraviolet spectrophotometric detector capable of operating at 248 nm with a sensitivity of about 0.5 absorbance units full scale.
The results of additional studies to investigate the effect of processing parameters such as temperature, time, and dissolved oxygen content on the purity profile of tigecycline solutions using the following materials, methods and procedures are presented in Tables A to O.
The experiments were run in plastic glove bags under normal laboratory light conditions. Plastic glove boxes will be used to control the headspace of the beakers. The batch size was 200 mL. • 1. Prepare the glove bag with a mixture of nitrogen and air to achieve an oxygen level in the solution as per the design. • 2. Place the jacketed beaker on the magnetic stirrer. Connect it to the cooler. Set the cooler to the desired set point. • 3. Add 200 mL of SWFI in to the beaker. Allow equilibrating. Measure the temperature and oxygen content. When it reaches the desired condition, add accurately weighed API and mix until dissolved. If necessary use spatula to aid dissolution. For pH adjustments, use 4 mL of either 0.1N NaOH or 0.1N HCl and 196 mL of WFI for manufacture. • 4. After complete dissolution, Transfer about 5.5 mL of Solution in vials and stopper them. These vials will be stoppered at the appropriate headspace conditions. Place the vials in appropriate temperature conditions. • 5. Sample the vials at 1, 4, 8, 10, 12 and 24 hours. Send the samples for analysis. Freeze the 10, 12 and 24 samples at −20° C. for analysis the following day. • 6. Measure pH and record color of the solution at each time point. Results
The 1-hour samples were taken directly from the beakers. Samples for later time points were collected in stoppered vials processed in the atmosphere of the bag in order to simulate the headspace conditions then placed in water baths or refrigerator to maintain there respective temperature conditions. This was done to maintain safety in the lab. Disposable plastic glove bags require constant flow of a mixture of nitrogen and air to maintain headspace oxygen level that will result in the desired dissolved oxygen (DO) content in the sample. The pH of samples was measured at each sample points.
Strength and degradation profile was analyzed by HPLC as described above. […] Degradation was slightly higher at higher temperature condition.

[1] = Run #F, 2° C., hours 1,4,8,12,24 at r5-r9, 8 h after preparation
[2] = Run #F, 2° C., hours 1,4,8,12,24 at r5-r9, 12 h after preparation
[3] = Run #F, 2° C., hours 1,4,8,12,24 at r5-r9, 24 h after preparation
[4] = Run #G, 5° C., hours 1,4,8,12,24 at r6-r10, after 4 hours
[5] = Run #G, 5° C., hours 1,4,8,12,24 at r6-r10, after 24 hours
[6] = Run #G, 5° C., hours 1,4,8,12,24 at r16-r20, after 1 hours
[7] = Run #G, 5° C., hours 1,4,8,12,24 at r16-r20, after 4 hours
[8] = Run #G, 5° C., hours 1,4,8,12,24 at r16-r20, after 8 hours
[9] = Run #G, 5° C., hours 1,4,8,12,24 at r16-r20, after 12 hours
[10] = Run #G, 5° C., hours 1,4,8,12,24 at r16-r20, after 24 hours
[11] = Run #H, 5° C., pH 7.9, Oxygen 1.0 mg/L, hours 1,4,8,10,12,24 at r6-r11
[12] = Run #H, 5° C., pH 7.9, Oxygen 1.0 mg/L, hours 1,4,8,10,12,24 at r6-r11, 1 h
[13] = Run #H, 5° C., pH 7.9, Oxygen 1.0 mg/L, hours 1,4,8,10,12,24 at r6-r11, 4 h
[14] = Run #H, 5° C., pH 7.9, Oxygen 1.0 mg/L, hours 1,4,8,10,12,24 at r6-r11, 10 h
[15] = Run #H, 5° C., pH 7.9, Oxygen 1.0 mg/L, hours 1,4,8,10,12,24 at r6-r11, 12 h
[16] = Run #H, 5° C., pH 7.9, Oxygen 1.0 mg/L, hours 1,4,8,10,12,24 at r6-r11, 24 h
[17] = Run #H, 5° C., pH 7.9, Oxygen 1.0 mg/L, hours 1,4,8,10,12,24 at r17-r22, 1 h
[18] = Run #H, 5° C., pH 7.9, Oxygen 1.0 mg/L, hours 1,4,8,10,12,24 at r17-r22, 4 h
[19] = Run #H, 5° C., pH 7.9, Oxygen 1.0 mg/L, hours 1,4,8,10,12,24 at r17-r22, 8 h
[20] = Run #H, 5° C., pH 7.9, Oxygen 1.0 mg/L, hours 1,4,8,10,12,24 at r17-r22, 10 h
[21] = Run #H, 5° C., pH 7.9, Oxygen 1.0 mg/L, hours 1,4,8,10,12,24 at r17-r22, 12 h
[22] = Run #H, 5° C., pH 7.9, Oxygen 1.0 mg/L, hours 1,4,8,10,12,24 at r17-r22, 24 h
[23] = Run #I, 5° C., pH 7.9, Oxygen 1.0 mg/L, hours 1,4,8,10,12,24 at r6-r11, 1 h
[24] = Run #I, 5° C., pH 7.9, Oxygen 1.0 mg/L, hours 1,4,8,10,12,24 at r6-r11, 4 h
[25] = Run #I, 5° C., pH 7.9, Oxygen 1.0 mg/L, hours 1,4,8,10,12,24 at r6-r11, 8 h
[26] = Run #I, 5° C., pH 7.9, Oxygen 1.0 mg/L, hours 1,4,8,10,12,24 at r6-r11, 10 h
[27] = Run #I, 5° C., pH 7.9, Oxygen 1.0 mg/L, hours 1,4,8,10,12,24 at r6-r11, 12 h

## CN(C)c1cc(NC(=O)CNC(C)(C)C)c(O)c2c1C[C@H]1C[C@H]3[C@H](N(C)C)C(O)=C(C(N)=O)C(=O)[C@@]3(O)C(O)=C1C2=O [Tigecycline]
[1]
  RRT 1.45: 0.09%
  RRT 1.85 MW = 597: 0.08%
  Total: 1.00%
[2]
  RRT 0.74 Epimer: 0.18%
  RRT 1.45: 0.08%
  Total: 1.07%
[3]
  RRT 0.74 Epimer: 0.19%
  Total: 1.43%
Run #G, 5° C., Oxygen = 1.0 mg/mL, hours 1,4,8,12,24 at r6-r10, after 1 hours
  Strength: 18.577 mg/mL
Run #G, 5° C., Oxygen = 1.0 mg/mL, hours 1,4,8,12,24 at r6-r10, after 4 hours
  Strength: 18.694 mg/mL
Run #G, 5° C., Oxygen = 1.0 mg/mL, hours 1,4,8,12,24 at r6-r10, after 8 hours
  Strength: 18.487 mg/mL
Run #G, 5° C., Oxygen = 1.0 mg/mL, hours 1,4,8,12,24 at r6-r10, after 12 hours
  Strength: 18.507 mg/mL
Run #G, 5° C., Oxygen = 1.0 mg/mL, hours 1,4,8,12,24 at r6-r10, after 24 hours
  Strength: 18.587 mg/mL
Run #G, 5° C., Oxygen = 1.0 mg/mL, hours 1,4,8,12,24 at r16-r20, after 1 hours
  RRT 1.67 MW = 556: 0.08%
Run #G, 5° C., Oxygen = 1.0 mg/mL, hours 1,4,8,12,24 at r16-r20, after 4 hours
  RRT 1.67 MW = 556: 0.14%
Run #G, 5° C., Oxygen = 1.0 mg/mL, hours 1,4,8,12,24 at r16-r20, after 8 hours
  RRT 1.67 MW = 556: 0.17%
Run #G, 5° C., Oxygen = 1.0 mg/mL, hours 1,4,8,12,24 at r16-r20, after 12 hours
  RRT 1.67 MW = 556: 0.20%
Run #G, 5° C., Oxygen = 1.0 mg/mL, hours 1,4,8,12,24 at r16-r20, after 24 hours
  RRT 1.67 MW = 556: 0.23%
Run #G, 5° C., hours 1,4,8,12,24 at r6-r10, after 1 hours
  RRT 0.74 Epimer: 0.16%
[4]
  RRT 0.58: 0.07%
  RRT 0.74 Epimer: 0.17%
Run #G, 5° C., hours 1,4,8,12,24 at r6-r10, after 8 hours
  RRT 0.74 Epimer: 0.18%
Run #G, 5° C., hours 1,4,8,12,24 at r6-r10, after 12 hours
  RRT 0.74 Epimer: 0.20%
[5]
  RRT 0.58: 0.08%
  RRT 0.74 Epimer: 0.21%
[6]
  RRT 1.45: 0.08%
  RRT 1.64 Mino: 0.11%
  RRT 1.85 MW = 597: 0.08%
  Total: 0.58%
[7]
  RRT 1.64 Mino: 0.07%
  Total: 0.78%
[8]
  RRT 1.45: 0.07%
  RRT 1.85 MW = 597: 0.09%
  Total: 1.12%
[9]
  RRT 1.45: 0.09%
  Total: 1.34%
[10]
  RRT 1.85 MW = 597: 0.10%
  Total: 2.09%
[11]
  RRT 0.58: 0.09%
  RRT 0.64 9-Amino: BRL (BRL means below reporting limit (meaning less than 0.05% of tigecycline peak))
[12]
  RRT 0.74 Epimer: 0.19%
  Strength: 19.457 mg/mL
[13]
  RRT 0.74 Epimer: 0.20%
  Strength: 19.441 mg/mL
Run #H, 5° C., pH 7.9, Oxygen 1.0 mg/L, hours 1,4,8,10,12,24 at r6-r11, 8 h
  Strength: 19.361 mg/mL
[14]
  RRT 0.74 Epimer: 0.25%
  Strength: 19.447 mg/mL
[15]
  RRT 0.74 Epimer: 0.27%
  Strength: 20.119 mg/mL
[16]
  RRT 0.74 Epimer: 0.23%
  Strength: 19.319 mg/mL
Run #H, 5° C., pH 7.9, Oxygen 1.0 mg/L, hours 1,4,8,10,12,24 at r17-r22
  RRT 0.78 MW = 557: BRL (BRL means below reporting limit (meaning less than 0.05% of tigecycline peak))
[17]
  RRT 1.45: 0.09%
  RRT 1.64 Mino: 0.12%
  RRT 1.85 MW = 597: 0.07%
  Total: 0.60%
[18]
  RRT 1.45: 0.07%
  RRT 1.64 Mino: 0.09%
  RRT 1.85 MW = 597: 0.08%
  Total: 0.70%
[19]
  RRT 1.64 Mino: 0.10%
  Total: 0.66%
[20]
  RRT 1.64 Mino: 0.11%
  Total: 0.90%
[21]
  RRT 1.85 MW = 597: 0.09%
  Total: 0.87%
[22]
  RRT 1.45: 0.05%
  RRT 1.64 Mino: 0.15%
  RRT 1.85 MW = 597: 0.10%
  Total: 1.03%
Run #I, 5° C., pH 7.9, Oxygen 1.0 mg/L, hours 1,4,8,10,12,24 at r6-r11
  RRT 0.64 9-Amino: BRL (BRL means below reporting limit (meaning less than 0.05% of tigecycline peak))
[23]
  RRT 0.58: 0.08%
  RRT 0.74 Epimer: 0.19%
  Strength: 19.263 mg/mL
[24]
  RRT 0.58: 0.09%
  RRT 0.74 Epimer: 0.21%
  Strength: 19.361 mg/mL
[25]
  RRT 0.58: 0.06%
  RRT 0.74 Epimer: 0.18%
  Strength: 19.131 mg/mL
[26]
  RRT 0.74 Epimer: 0.29%
  Strength: 19.204 mg/mL
[27]
  RRT 0.58: 0.07%
  RRT 0.74 Epimer: 0.26%
